Experimental data published in US5328902A, “7-(substituted)-9-[(substituted glycyl)amido]-6-demethyl-6-deoxytetracyclines” (American Cyanamid Co., priority 1992, dated 1994).

Tests used:
Type in all cases: cell-based
[1] = system: E. coli UBMS 88-1 Tet B; assay: microbe, parasite or virus in culture; settings: E. coli UBMS 88-1 Tet B; 18 hours at 35° C.
[2] = system: E. coli MC 4100 Tet sens.; assay: MIC, agar dilution
[3] = system: E. coli PRP1 Tet A; assay: microbe, parasite or virus in culture; settings: E. coli PRP1 Tet A
[4] = system: E. coli MC 4100 TNIOC Tet B; assay: microbe, parasite or virus in culture; settings: E. coli MC 4100 TNIOC Tet B
[5] = system: E. coli UBMS 89-1 Tet M; assay: microbe, parasite or virus in culture; settings: E. coli UBMS 89-1 Tet M
[6] = system: E. coli UBMS 89-2 Tet sens.; assay: MIC, agar dilution; settings: E. coli UBMS 89-2 Tet sens.
[7] = system: E. coli J2175; assay: MIC, agar dilution; settings: E. coli J2175
[8] = system: E. coli BAJ9003 IMP MUT; assay: microbe, parasite or virus in culture; settings: E. coli BAJ9003 IMP MUT
[9] = system: E. coli UBMS 90-4 Tet M; assay: microbe, parasite or virus in culture; settings: E. coli UBMS 90-4 Tet M
[10] = system: E. coli UBMS 90-5; assay: MIC, agar dilution
[11] = system: E. coli #311 (MP); assay: MIC, agar dilution; settings: E. coli #311 (MP)
[12] = system: E. coli ATCC 25922; assay: MIC, agar dilution; settings: E. coli ATCC 25922
[13] = system: E. coli J3272 Tet D; assay: microbe, parasite or virus in culture; settings: E. coli J3272 Tet D
[14] = system: S. mariescens FPOR 8733; assay: MIC, agar dilution
[15] = system: X. maltophilia NEMC 87210; assay: MIC, agar dilution
[16] = system: Ps. acruginosa ATCC 27853; assay: MIC, agar dilution; settings: Ps. acruginosa ATCC 27853
[17] = system: S. aureus NEMC 8769; assay: MIC, agar dilution; settings: S. aureus NEMC 8769
[18] = system: S. aureus UBMS 88-4; assay: MIC, agar dilution; settings: S. aureus UBMS 88-4
[19] = system: S. aureus UBMS 88-5 Tet M; assay: microbe, parasite or virus in culture; settings: S. aureus UBMS 88-5 Tet M
[20] = system: S. aureus UBMS 90-1 Tet M; assay: microbe, parasite or virus in culture; settings: S. aureus UBMS 90-1 Tet M
[21] = system: S. aureus UBMS 90-3; assay: MIC, agar dilution; settings: S. aureus UBMS 90-3
[22] = system: S. aureus UBMS 90-2 Tet M; assay: microbe, parasite or virus in culture; settings: S. aureus UBMS 90-2 Tet M
[23] = system: S. aureus SMITH (MP); assay: MIC, agar dilution; settings: S. aureus SMITH (MP)
[24] = system: S. aureus ATCC 29213; assay: MIC, agar dilution; settings: S. aureus ATCC 29213
[25] = system: S. hemolyticus AVHAH 88-3; assay: MIC, agar dilution; settings: S. hemolyticus AVHAH 88-3
[26] = system: Enterococcus 12201; assay: MIC, agar dilution; settings: Enterococcus 12201
[27] = system: E. faecalis ATCC 29212; assay: MIC, agar dilution; settings: E. faecalis ATCC 29212
[28] = system: E. coli J3272 Tet C; assay: microbe, parasite or virus in culture; settings: E. coli J3272 Tet C
[29] = system: S. aureus UBMS 88-7 Tet K; assay: microbe, parasite or virus in culture; settings: S. aureus UBMS 88-7 Tet K
[30] = system: S. aureus IVES 2943; assay: MIC, agar dilution; settings: S. aureus IVES 2943
[31] = system: S. aureus ROSE (MP); assay: MIC, agar dilution; settings: S. aureus ROSE (MP)
[32] = system: S. aureus IVES 1 983; assay: MIC, agar dilution; settings: S. aureus IVES 1 983

Measured: MIC

CN(C)c1cc(NC(=O)CNCCF)c(O)c2c1CC1CC3C(N(C)C)C(O)=C(C(N)=O)C(=O)C3(O)C(O)=C1C2=O (stereo not drawn) [T, [4S-(4alpha,12aalpha)]-4,7-Bis(dimethylamino)-9-[[[(2-fluoroethyl)amino]acetyl]amino]-1,4,4a,5,5a,6,11,12a-octahydro3,10,12,12a-tetrahydroxy-1,11-dioxo-2-naphthacenecarboxamide]
16 µg/mL: [1] | [4] | [6] | [7] | [10] | [11] | [15]
1 µg/mL: [8] | [23] | [27]
2 µg/mL: [2] | [21] | [26]
4 µg/mL: [17] | [18] | [19] | [20] | [22] | [24]
> 32 µg/mL: [3] | [14] | [16]
8 µg/mL: [5] | [9] | [12] | [13] | [25]

CN(C)c1cc(NC(=O)CNCCN2CCCCC2)c(O)c2c1C[C@H]1C[C@H]3[C@H](N(C)C)C(O)=C(C(N)=O)C(=O)[C@@]3(O)C(O)=C1C2=O [U, [4S-(4alpha,12alpha)]-4,7-Bis(dimethylamino)-1,4,4a,5,5a,6,11,12a-octahydro3,10,12,12a-tetrahydroxy-1,11-dioxo-9-[[[[2-(1-piperidinyl)ethyl]amino]acetyl]amino]-2-naphthacenecarboxamide]
2 µg/mL: [8]
> 32 µg/mL: [1] | [3] | [14] | [16] | [30] | [31] | [32]
4 µg/mL: [2]
32 µg/mL: [4] | [6] | [7] | [20] | [25]
8 µg/mL: [17] | [18] | [21] | [22] | [23] | [24] | [27]
not listed: [13] | [26]
16 µg/mL: all other assays above
